# Activity calls are given as the source filed them.
# Tests used:
# [1] = HEp-2 cell cytotoxicity, dose response, cytotoxicity control for RSV inhibitor project, HTS (AID 2410); format: functional; conditions: human respiratory syncytial virus
# Melanocortin receptor 4 = Melanocortin receptor 4 (Homo sapiens, UniProt P32245); format: functional, cell-based;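 further: Cell-based assay with luminescence read-out, confirmatory dose-response testing for agonist activity of biased ligands at MC4R; human U2OS cells with tagged receptor and beta-arrestin; potency of agonists that increase receptor coupling to beta-arrestin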
# Chain of Melanocortin receptor 4 (P32245 whole entry, the tested form may be a part): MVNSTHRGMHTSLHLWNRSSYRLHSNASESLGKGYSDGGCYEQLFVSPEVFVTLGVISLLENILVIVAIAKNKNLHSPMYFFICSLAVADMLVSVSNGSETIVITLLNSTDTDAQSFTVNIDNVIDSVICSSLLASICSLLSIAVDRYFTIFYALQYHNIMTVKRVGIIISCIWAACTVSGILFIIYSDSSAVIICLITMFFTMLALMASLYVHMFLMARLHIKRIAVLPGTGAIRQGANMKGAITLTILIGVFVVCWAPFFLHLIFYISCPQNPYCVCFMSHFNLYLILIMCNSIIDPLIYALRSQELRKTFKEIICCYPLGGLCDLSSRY
# [2] = inhibitors of HIV Env-driven cell fusion, dose response, cherry-pick (AID 652057); format: functional, cell-based
# [3] = CEM21 lymphoblast cell cytotoxicity, dose response, cytotoxicity control for viral fusion inhibitor project, CellTiter-Glo luminescence, cherry-picked (AID 652042); format: functional, cell-based;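 further: potency for signal decrease meaning cytotoxicity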
# [4] = ZM109 Env clade C HIV-1 fusion inhibitors, dose response, HeLa effector, CEM target cells, luciferase, cherry-pick (AID 652058); format: functional, cell-based
# [5] = off-target signal loss in HeLa-CEM21 co-culture – HeLa F-luc CTL cells, cherry-picked, counter-screen for HIV-1 Env fusion inhibitor project, dose response (AID 652040); format: functional, cell-based;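 further: potency for signal decrease marking cytotoxic or nonspecific inhibition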
# [6] = inhibitors of clade B AD8 Env fusion, dose response, cell-based, cherry-pick (AID 652062); format: functional;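 further: luciferase signal from cell-cell fusion driven by HIV-1 clade B AD8 Env; potency is for inhibitors of fusion seen as a drop in luminescence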
# [7] = target: T1, Low molecular weight phosphotyrosine protein phosphatase (Homo sapiens, UniProt P24666); format: functional; conditions: read-out: IC50_Mean;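 further: Dose-response confirmation assay measuring inhibition of LMPTP enzyme activity by fluorescence intensity read-out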
# T1 sequence (P24666 whole entry): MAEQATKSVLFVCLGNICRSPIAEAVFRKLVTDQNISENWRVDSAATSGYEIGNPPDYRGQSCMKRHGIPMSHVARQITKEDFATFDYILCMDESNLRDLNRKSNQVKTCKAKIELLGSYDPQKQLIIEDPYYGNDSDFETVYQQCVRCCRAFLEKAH
# [8] = target: T2, Sentrin-specific protease 1 (Homo sapiens, UniProt Q9P0U3); experiment: potency of human SENP1 inhibitors, dose response, biochemical, kinetic FRET (AID 651697); format: functional; conditions: read-out: IC50_Mean
# T2 sequence (Q9P0U3 whole entry): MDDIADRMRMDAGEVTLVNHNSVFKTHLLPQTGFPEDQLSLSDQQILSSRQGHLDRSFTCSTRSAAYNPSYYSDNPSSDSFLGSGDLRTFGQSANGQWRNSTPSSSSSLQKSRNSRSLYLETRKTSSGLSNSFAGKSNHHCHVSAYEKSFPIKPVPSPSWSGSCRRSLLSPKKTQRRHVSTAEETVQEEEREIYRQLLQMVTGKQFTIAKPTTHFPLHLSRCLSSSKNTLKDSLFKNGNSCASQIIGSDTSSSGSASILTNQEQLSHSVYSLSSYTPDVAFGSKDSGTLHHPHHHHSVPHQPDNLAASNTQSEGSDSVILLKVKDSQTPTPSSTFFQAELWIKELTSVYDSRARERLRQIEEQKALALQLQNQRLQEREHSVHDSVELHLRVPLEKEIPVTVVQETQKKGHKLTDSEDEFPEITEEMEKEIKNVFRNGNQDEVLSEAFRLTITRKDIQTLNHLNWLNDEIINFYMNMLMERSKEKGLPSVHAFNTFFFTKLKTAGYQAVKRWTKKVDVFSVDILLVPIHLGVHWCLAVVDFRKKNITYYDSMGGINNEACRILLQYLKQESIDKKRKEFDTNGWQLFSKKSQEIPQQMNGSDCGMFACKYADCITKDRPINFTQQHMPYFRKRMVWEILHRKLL
# [9] = target: T2, Sentrin-specific protease 1; experiment: Dose response confirmation of small molecule inhibitors of the catalytic domain of the SUMO protease, SENP1 in a FRET assay.; format: functional; conditions: read-out: IC50_Mean
# [10] = target: T3, DNA repair and recombination protein RAD54-like (Homo sapiens, UniProt Q92698); experiment: inhibitors of human RAD54 branch migration, confirmation, biochemical, fluorescence, cherry-picked samples, dose series (AID 651657); format: functional
# T3 sequence (Q92698 whole entry): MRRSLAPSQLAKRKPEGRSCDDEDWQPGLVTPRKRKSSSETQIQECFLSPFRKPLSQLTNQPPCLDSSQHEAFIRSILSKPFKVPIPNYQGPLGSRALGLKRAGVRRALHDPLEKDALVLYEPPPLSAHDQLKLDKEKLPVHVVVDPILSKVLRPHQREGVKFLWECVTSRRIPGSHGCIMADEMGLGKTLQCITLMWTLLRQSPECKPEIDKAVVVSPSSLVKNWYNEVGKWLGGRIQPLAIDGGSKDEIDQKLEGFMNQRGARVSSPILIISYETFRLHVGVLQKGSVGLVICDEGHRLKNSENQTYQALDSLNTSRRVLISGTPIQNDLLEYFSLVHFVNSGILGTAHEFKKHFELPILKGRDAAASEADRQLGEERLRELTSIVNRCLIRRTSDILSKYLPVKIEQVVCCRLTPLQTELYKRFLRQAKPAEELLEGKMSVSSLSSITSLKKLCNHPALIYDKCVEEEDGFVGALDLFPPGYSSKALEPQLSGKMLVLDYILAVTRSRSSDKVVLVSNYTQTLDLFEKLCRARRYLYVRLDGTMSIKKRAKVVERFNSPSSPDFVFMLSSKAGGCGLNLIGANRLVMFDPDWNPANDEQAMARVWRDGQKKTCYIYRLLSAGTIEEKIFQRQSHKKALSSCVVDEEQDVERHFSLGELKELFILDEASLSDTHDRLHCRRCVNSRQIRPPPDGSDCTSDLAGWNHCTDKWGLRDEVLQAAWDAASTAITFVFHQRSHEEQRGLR
# [11] = inhibitors of intracellular T. cruzi replication, confirmation, NIH3T3 host cells, beta-gal luminescence (AID 2044); format: functional, cell-based;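 further: intracellular parasites grown in NIH/3T3 mouse fibroblasts as host cells; luminescent beta-galactosidase reporter signal from transgenic T. cruzi replicating inside host cells; inhibitors lower the luminescence signal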
# [12] = cytotoxicity toward NIH3T3 fibroblasts, dose response, counter-screen, cell-based, ATP luminescence, mouse fibroblasts (AID 2010); format: functional;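 further: cells exposed to compound for about 90 hours before reading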
# [13] = target: T4, Ubiquitin-conjugating enzyme E2 N (Homo sapiens, UniProt P61088); format: functional;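 further: Dose-response confirmation in a TR-FRET assay detecting UBC13-driven polyubiquitin chain formation, inhibition measured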
# T4 sequence (P61088 whole entry): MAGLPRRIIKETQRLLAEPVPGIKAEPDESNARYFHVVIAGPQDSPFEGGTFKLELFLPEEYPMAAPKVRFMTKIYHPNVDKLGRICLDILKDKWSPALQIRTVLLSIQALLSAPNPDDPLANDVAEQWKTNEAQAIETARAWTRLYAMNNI
# [14] = target: T5, DNA repair protein RAD52 homolog (Homo sapiens, UniProt P43351); format: functional, biochemical
# T5 sequence (P43351 whole entry): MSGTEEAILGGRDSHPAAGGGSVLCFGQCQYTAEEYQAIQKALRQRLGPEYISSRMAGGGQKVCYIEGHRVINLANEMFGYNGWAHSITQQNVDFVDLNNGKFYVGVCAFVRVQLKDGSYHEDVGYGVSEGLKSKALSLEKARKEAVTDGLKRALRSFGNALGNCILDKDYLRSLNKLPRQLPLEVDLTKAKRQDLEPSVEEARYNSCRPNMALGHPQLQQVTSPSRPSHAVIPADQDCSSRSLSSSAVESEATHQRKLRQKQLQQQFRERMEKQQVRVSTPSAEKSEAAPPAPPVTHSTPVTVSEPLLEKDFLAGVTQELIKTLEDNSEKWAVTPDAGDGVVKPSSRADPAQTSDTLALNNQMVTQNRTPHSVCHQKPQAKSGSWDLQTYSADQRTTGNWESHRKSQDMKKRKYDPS
# [15] = target: Heat shock protein HSP 90-alpha (Homo sapiens, UniProt P07900); format: functional, organism-based
# [16] = target: T6, Adenosylmethionine-8-amino-7-oxononanoate aminotransferase (Mycobacterium tuberculosis, UniProt P9WQ81); experiment: Mycobacterium tuberculosis BioA enzyme inhibitor Measured in Biochemical System Using Plate Reader - 2163-02_Inhibitor_Dose_CherryPick_Activity.; format: functional, Mycobacterium tuberculosis UT205
# T6 sequence (P9WQ81 whole entry): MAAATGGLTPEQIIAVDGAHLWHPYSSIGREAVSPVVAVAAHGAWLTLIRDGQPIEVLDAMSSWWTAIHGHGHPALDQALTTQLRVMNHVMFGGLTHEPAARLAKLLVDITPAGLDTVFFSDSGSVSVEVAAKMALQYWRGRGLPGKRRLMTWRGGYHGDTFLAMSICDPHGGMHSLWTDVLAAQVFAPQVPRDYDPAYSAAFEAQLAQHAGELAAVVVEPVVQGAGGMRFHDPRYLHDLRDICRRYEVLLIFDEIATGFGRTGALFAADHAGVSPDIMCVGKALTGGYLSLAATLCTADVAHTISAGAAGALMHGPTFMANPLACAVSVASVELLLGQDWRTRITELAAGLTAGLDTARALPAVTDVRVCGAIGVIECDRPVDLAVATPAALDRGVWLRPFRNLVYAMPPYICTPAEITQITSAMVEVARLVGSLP
# H9c2 = experiment: cells; format: functional, cell-based; conditions: Rattus norvegicus, H9c2, Myocardium;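 further: confirmatory concentration-response retest of ultra-high-throughput screening hits for modulation of myocardial damage; cell death induced by hydrogen peroxide oxidative stress; compound pretreatment for 60 min then peroxide exposure for 2 h; potency is for protecting the cells against peroxide damage rather than for killing them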
# P388/ADR = experiment: cells; format: functional; conditions: Mus musculus
# SN12K1 = experiment: cells; format: functional; conditions: Homo sapiens
# P388 = experiment: cells; format: functional; conditions: Mus musculus
smiles,measurement,setting,value
CCOc1cc(CNCCc2c[nH]c3ccccc23)cc(Cl)c1OCC,CC50,[1],14.9 µM (active)
same,EC50,Melanocortin receptor 4,> 89.2 µM (inactive)
same,AC50,[2],4.29 µM (active)
same,AC50,[3],26.6 µM (active)
same,AC50,[4],2.31 µM (active)
same,AC50,[5],6.11 µM (active)
same,AC50,[6],27.2 µM (active)
O=c1c2ccccc2nc2sc(Nc3cccc(Cl)c3)nn12,IC50,[7],14.5 µM (active)
Cc1ccc(-c2csc3nc(-c4ccncc4)[nH]c(=O)c23)cc1,IC50,[8],69.3 µM (inactive)
same,IC50,[9],62 µM (inactive)
CCCN(CCC)C(=O)Cn1c(=O)c2sccc2n2c(=S)sc(-c3ccccc3)c12,IC50,[8],73.8 µM (inactive)
same,IC50,[9],12.6 µM (active)
CCOC(=O)c1c(C)n(C)c2ccc(OCC(O)CN3CCN(C)CC3)cc12 (stereo not given),AC50,[10],38.9 µM (active)
N=C(N)Nc1nc(-c2ccccc2)c2cc(Cl)ccc2n1,EC50,[11],0.382 µM (active)
same,EC50,[12],> 60 µM (not active)
same,IC50,[13],> 20 µM (inactive)
same,EC50,Melanocortin receptor 4,> 89.2 µM (inactive)
same,AC50,[14],6.61 µM (active)
CSc1nc(SCC(N)=O)c2c3c(sc2n1)CN(C)CC3,AC50,[10],17.2 µM (active)
Oc1ccc(C=NN=C2c3ccccc3-c3ccccc32)c(O)c1,AC50,[15],12.1 µM (active)
same,IC50,[8],12.5 µM (active)
same,IC50,[9],6.06 µM (active)
Oc1nc(N2CCN(Cc3ccc4c(c3)OCO4)CC2)nc2c1CCCC2,AC50,[16],0.921 µM (active)
COc1cccc(-c2cnc3c(NC=O)cc(-c4cc(OC)c(OC)c(OC)c4)cn23)c1,IC50,H9c2,> 79 µM (inactive)
same,EC50,Melanocortin receptor 4,> 89.2 µM (inactive)
Cn1nnc2cc(C(=O)Nc3cccnc3)ccc21,AC50,[16],4.17 µM (active)
CC(=O)Oc1ccc(C2COc3cc(OC(C)=O)c(OC(C)=O)cc3C2)cc1 (stereo not given),GI50,P388/ADR,5.42 µM (inactive)
same,GI50,SN12K1,13 µM (inactive)
same,GI50,P388,6 µM (inactive)
CSCSCC(CO)NC(=O)/C(C)=C\c1c(C)[nH]c(=O)[nH]c1=O (stereo not given),GI50,P388/ADR,> 250 µM (inactive)
same,GI50,SN12K1,> 250 µM (inactive)
same,GI50,P388,> 250 µM (inactive)
O=C(O)CC(NC(=O)CP(=O)(O)O)C(=O)O (stereo not given),GI50,P388/ADR,77.1 µM (inactive)
same,GI50,SN12K1,5.32 µM (inactive)
same,GI50,P388,127 µM (inactive)
C/C=C/c1ccc2c(c1)O[C@@H](CN(C)C(=O)Nc1ccccc1)[C@H](C)CN([C@H](C)CO)S2(=O)=O,AC50,[16],5.6 µM (active)
O=c1[nH]c2ccccc2n1C1CCN(Cc2ccc(-c3nc4cc5[nH]cnc5cc4nc3-c3ccccc3)cc2)CC1,IC50,[7],7.43 µM (active)
C/C(=C\c1ccccc1)C(=O)CCN1CCOCC1,GI50,P388/ADR,5.73 µM (inactive)
same,GI50,SN12K1,17.9 µM (inactive)
same,GI50,P388,4.78 µM (inactive)
